From ChEMBL document CHEMBL1132055, “1-Aminoisoquinoline as benzamidine isoster in the design and synthesis of orally active thrombin inhibitors” (Bioorg Med Chem Lett, 1999) come the findings set out here.

Experiment [1] has as its target Serine protease 1 (Homo sapiens, UniProt P07477). Nature of the experiment: Compound was tested for inhibitory activity against trypsin.
Experiment [2] deals with Caco-2. Particulars: Homo sapiens.
Description: Compound was tested for its effect on increasing the permeability of Caco-2 cells
Experiment [3] deals with Prothrombin (Homo sapiens, UniProt P00734). Nature of the experiment: Compound was tested for inhibitory activity against thrombin.

pIC50: −log10 of the molar value.

Serine protease 1, sequence (P07477 whole entry): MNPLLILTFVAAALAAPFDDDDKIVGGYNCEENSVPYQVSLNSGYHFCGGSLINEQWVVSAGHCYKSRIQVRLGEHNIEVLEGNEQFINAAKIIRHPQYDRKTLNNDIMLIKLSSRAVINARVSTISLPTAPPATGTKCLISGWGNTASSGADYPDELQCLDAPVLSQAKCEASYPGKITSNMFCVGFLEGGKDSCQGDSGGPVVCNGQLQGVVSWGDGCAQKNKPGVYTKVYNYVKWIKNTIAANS

As usually defined, the pIC50 is the negative decadic logarithm of the IC50, by convention in mol/L. A low value points to a large IC50. In turn, `COc1cc(C)c(S(=O)(=O)N[C@@H](CC(=O)OC(C)(C)C)C(=O)NC(Cc2ccc3c(N)nccc3c2)C(=O)N2CCCCC2)c(C)c1C` (stereo partly specified) gave a pIC50 in experiment [1] of 3.42.

The term Papp denotes a coefficient for how fast a substance crosses the barrier. As to `Nc1nccc2cc(CC(NC(=O)CNS(=O)(=O)c3ccc4ccccc4c3)C(=O)N3CCCCC3)ccc12` (stereo unspecified), the results for the negative logarithm of the IC50 (pIC50) in experiment [1] and in experiment [3] were 3.59 and 4.26, respectively. For the same compound, in experiment [2], the Papp came out at 19 nm/s.

Compound `Cc1ccc(S(=O)(=O)NCC(=O)NC(Cc2ccc3c(N)nccc3c2)C(=O)N2CCCCC2)cc1` (stereo unspecified) showed a pIC50 in experiment [3] of 3.45.

In turn, `Cc1c(C)c(S(=O)(=O)NCC(=O)NC(Cc2ccc3c(N)nccc3c2)C(=O)N2CCCCC2)c(C)c2c1OC(C)(C)CC2` (stereo unspecified) showed a Papp in experiment [2] of 37 nm/s.
